{
  "source": "patent US20140377216A1",
  "about": "“ANTICANCER FUSION PROTEIN” (ADAMED SP. Z.O.O., priority 2011, published 2014)",
  "key": {"[1]": {"system": "human colon cancer HCT116", "test": "Colon cancer model, Experiment A1: HCT116 xenograft", "type": "in vivo, Crl:SHO-PrkdcscidHrhr mice", "details": "65 mg/kg i.v. six times every second day, 24th day", "procedure": "(§1) Tumor size was measured using electronic calliper, tumor volume was calculated using the formula: (a^2×b)/2, where a=shorter diagonal of the tumor (mm) and b=longer diagonal of the tumor (mm). Inhibition of tumor growth was calculated using the formula:\n(§2) TGI[%](Tumor growth inhibition)=(WT/WC)×100−100%\n(§3) wherein WT is the average tumor volume in the treatment group, and WC is the average tumor volume in the control group.\nOn day 0 Crl:SHO-Prkdc^scidHr^hr mice were grafted subcutaneously (s.c.) in the right flank region with 5×10^6 of HCT116 cells suspended in 0.1 ml of the 3:1 mixture HBSS buffer:Matrigel using syringe with a 0.5×25 mm needle (Bogmark). When tumors reached the size of 71-432 mm^3 (day 13), mice were randomized to obtain the average size of tumors in the group of ˜180 mm^3 and assigned to treatment groups. The treatment groups were administered with the preparations of fusion protein of the invention of Ex. 16^b (90 mg/kg) and rhTRAIL114-281 (65 mg/kg) as a comparison. The preparations were administered intravenously (i.v.) six times every second day. The control group received formulation buffer.\nWhen an experimental group reached the average tumor size of −1000 mm^3, mice were sacrificed by cervical dislocation."}, "human colon cancer SW620": {"system": "human colon cancer SW620", "test": "Colon cancer model, Experiment B: SW620 xenograft", "type": "in vivo, Crl:SHO-PrkdcscidHrhr mice", "details": "30 mg/kg i.v. 6 times every second day, 31 day", "procedure": "as §1, §2, §3\nOn day 0 Crl:SHO-Prkdc^scidHr^hr mice were grafted subcutaneously (s.c.) in the right side with 5×10^6 of SW620 cells suspended in 0.1 ml of the mixture HBSS:Matrigel 3:1 using syringe with a needle 0.5×25 mm (Bogmark). On the 17 day of the experiment mice were randomized to obtain the average size of tumors in the group of ˜320 mm^3 and assigned to treatment groups. The treatment groups were administered with the preparation of fusion protein of the invention of Ex. 16^a (20 mg/kg) and rhTRAIL114-281 (30 mg/kg) as a comparison against formulation buffer (19 mM NaH2PO4, 81 mM Na2HPO4, 50 mM NaCl, 5 mM glutathione, 0.1 mM ZnCl2, 10% glycerol, pH 7.4) as a control. The preparations were administered intravenously (i.v) 6 times once daily every second day. On the 31 day of the experiment mice were sacrificed by disruption of the spinal cord."}},
  "data": [
    {"substance": "rhTRAIL114-281: recombinant human soluble TRAIL, amino acids 114-281 of hTRAIL, used as comparative reference", "values": [
      {"measurement": "TGI (tumor growth inhibition) relative to the control", "setting": "[1]", "result": 37.9, "unit": "%"},
      {"measurement": "TGI (tumor growth inhibition) relative to the control", "setting": "human colon cancer SW620", "result": "−9", "unit": "%"}
    ]}
  ]
}
